Reference: the supplement of paper PMC10307832

Assays:
Test in all cases: relative viability (nuclei count vs DMSO), 5 days (fraction); higher = more cells survive
Hydroxychloroquine = compound: CCN(CCO)CCCC(C)Nc1ccnc2cc(Cl)ccc12 [Hydroxychloroquine]
How it was run: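 Vehicle-anchored 1536-well plates of lung cancer cell lines, held overnight at 37 °C, were pinned with five library-drug doses (not always all listed) spaced by √10. No medium change followed over the next 5 days, after which the cells were fixed, permeabilised and Hoechst-stained together and imaged at 4×. Nuclei were counted with MetaXpress, and viability is treated-well nuclei over vehicle-well nuclei, taken as a median across plates. Plates passed with control CV below 25% and at least one doubling.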

[1] = compound: CCN(CCO)CCCC(C)Nc1ccnc2cc(Cl)ccc12 [Hydroxychloroquine] + O=C(CCCCCCC(=O)Nc1ccccc1)NO [Vorinostat] (partner 1 µM)
How it was run: (§1)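 Relative viability equals treated-well nuclei counts divided by vehicle-well nuclei counts. Counts came from 4× images of lung cancer cell lines grown in 1536-well plates for 5 days after pin-tool dosing on the day after seeding. Dosing used one drug alone or a fixed anchor-drug dose plus five library-drug doses (not always all listed) in √10 steps, and values are medians of duplicate plates.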

[2] = compound: CCN(CCO)CCCC(C)Nc1ccnc2cc(Cl)ccc12 [Hydroxychloroquine] + CC(=O)c1c(C)c2cnc(Nc3ccc(N4CCNCC4)cn3)nc2n(C2CCCC2)c1=O [Palbociclib] (partner 0.5 µM)
How it was run: as §1

[3] = compound: CCN(CCO)CCCC(C)Nc1ccnc2cc(Cl)ccc12 [Hydroxychloroquine] + CC(=O)Nc1cccc(-n2c(=O)n(C3CC3)c(=O)c3c(Nc4ccc(I)cc4F)n(C)c(=O)c(C)c32)c1 [Trametinib] (partner 0.02 µM)
How it was run: as §1

[4] = compound: CCN(CCO)CCCC(C)Nc1ccnc2cc(Cl)ccc12 [Hydroxychloroquine] + Cc1cc(Nc2cc(N3CCN(C)CC3)nc(Sc3ccc(NC(=O)C4CC4)cc3)n2)n[nH]1 [Tozasertib] (partner 0.1 µM)
How it was run: as §1

[5] = compound: CCN(CCO)CCCC(C)Nc1ccnc2cc(Cl)ccc12 [Hydroxychloroquine] + NC(=O)Nc1cc(-c2cccc(F)c2)sc1C(=O)N[C@H]1CCCNC1 [AZD7762] (partner 0.2 µM)
How it was run: as §1

[6] = compound: CCN(CCO)CCCC(C)Nc1ccnc2cc(Cl)ccc12 [Hydroxychloroquine] + CCNC(=O)c1noc(-c2cc(C(C)C)c(O)cc2O)c1-c1ccc(CN2CCOCC2)cc1 [Luminespib] (partner 0.01 µM)
How it was run: as §1

[7] = compound: CCN(CCO)CCCC(C)Nc1ccnc2cc(Cl)ccc12 [Hydroxychloroquine] + COc1cccc2cc(-c3nc([C@H]4CC[C@H](C(=O)O)CC4)n4ncnc(N)c34)[nH]c12 [OSI-027] (partner 0.5 µM)
How it was run: as §1

[8] = compound: CCN(CCO)CCCC(C)Nc1ccnc2cc(Cl)ccc12 [Hydroxychloroquine] + O=C(c1cc(Cc2n[nH]c(=O)c3ccccc23)ccc1F)N1CCN(C(=O)C2CC2)CC1 [Olaparib] (partner 8 µM)
How it was run: as §1

[9] = compound: CCN(CCO)CCCC(C)Nc1ccnc2cc(Cl)ccc12 [Hydroxychloroquine] + Nc1nc2[nH]cc(CCc3ccc(C(=O)N[C@@H](CCC(=O)O)C(=O)O)cc3)c2c(=O)[nH]1 [Pemetrexed] (partner 0.2 µM)
How it was run: as §1

[10] = compound: CCN(CCO)CCCC(C)Nc1ccnc2cc(Cl)ccc12 [Hydroxychloroquine] + COc1cc2c(Oc3ccc(NC(=O)C4(C(=O)Nc5ccc(F)cc5)CC4)cc3F)ccnc2cc1OCCCN1CCOCC1 [Foretinib] (partner 0.25 µM)
How it was run: as §1

[11] = compound: CCN(CCO)CCCC(C)Nc1ccnc2cc(Cl)ccc12 [Hydroxychloroquine] + N=C(N)NC(=N)NCCc1ccccc1 [Phenformin] (partner 250 µM)
How it was run: as §1

[12] = compound: CCN(CCO)CCCC(C)Nc1ccnc2cc(Cl)ccc12 [Hydroxychloroquine] + Nc1ncn([C@H]2C[C@H](O)[C@@H](CO)O2)c(=O)n1 [Decitabine] (partner 2 µM)
How it was run: as §1

[13] = compound: CCN(CCO)CCCC(C)Nc1ccnc2cc(Cl)ccc12 [Hydroxychloroquine] + Cc1nc(Nc2ncc(C(=O)Nc3c(C)cccc3Cl)s2)cc(N2CCN(CCO)CC2)n1 [Dasatinib] (partner 0.075 µM)
How it was run: as §1

Cell Line: NCI-H2342
- relative viability (Hydroxychloroquine; 0.5 µM): 0.986
- relative viability (Hydroxychloroquine; 1.581 µM): 0.897
- relative viability (Hydroxychloroquine; 5 µM): 0.987
- relative viability (Hydroxychloroquine; 15.81 µM): 0.991
- relative viability (Hydroxychloroquine; 50 µM): 1.13
- relative viability ([1]; first compound 0.5 µM): 0.713
- relative viability ([1]; first compound 1.581 µM): 0.812
- relative viability ([1]; first compound 5 µM): 0.812
- relative viability ([1]; first compound 15.81 µM): 0.813
- relative viability ([1]; first compound 50 µM): 0.848
- relative viability ([2]; first compound 0.5 µM): 0.565
- relative viability ([2]; first compound 1.581 µM): 0.514
- relative viability ([2]; first compound 5 µM): 0.507
- relative viability ([2]; first compound 15.81 µM): 0.487
- relative viability ([2]; first compound 50 µM): 0.514
- relative viability ([3]; first compound 0.5 µM): 0.868
- relative viability ([3]; first compound 1.581 µM): 0.923
- relative viability ([3]; first compound 5 µM): 0.908
- relative viability ([3]; first compound 15.81 µM): 0.804
- relative viability ([3]; first compound 50 µM): 0.881
- relative viability ([4]; first compound 0.5 µM): 0.493
- relative viability ([4]; first compound 1.581 µM): 0.467
- relative viability ([4]; first compound 5 µM): 0.439
- relative viability ([4]; first compound 15.81 µM): 0.508
- relative viability ([4]; first compound 50 µM): 0.627
- relative viability ([5]; first compound 0.5 µM): 0.458
- relative viability ([5]; first compound 1.581 µM): 0.47
- relative viability ([5]; first compound 5 µM): 0.522
- relative viability ([5]; first compound 15.81 µM): 0.463
- relative viability ([5]; first compound 50 µM): 0.449
- relative viability ([6]; first compound 0.5 µM): 0.606
- relative viability ([6]; first compound 1.581 µM): 0.668
- relative viability ([6]; first compound 5 µM): 0.706
- relative viability ([6]; first compound 15.81 µM): 0.69
- relative viability ([6]; first compound 50 µM): 0.809
- relative viability ([7]; first compound 0.5 µM): 0.585
- relative viability ([7]; first compound 1.581 µM): 0.578
- relative viability ([7]; first compound 5 µM): 0.613
- relative viability ([7]; first compound 15.81 µM): 0.68
- relative viability ([7]; first compound 50 µM): 0.69
- relative viability ([8]; first compound 0.5 µM): 0.434
- relative viability ([8]; first compound 1.581 µM): 0.386
- relative viability ([8]; first compound 5 µM): 0.42
- relative viability ([8]; first compound 15.81 µM): 0.421
- relative viability ([8]; first compound 50 µM): 0.509
- relative viability ([9]; first compound 0.5 µM): 0.744
- relative viability ([9]; first compound 1.581 µM): 0.695
- relative viability ([9]; first compound 5 µM): 0.75
- relative viability ([9]; first compound 15.81 µM): 0.81
- relative viability ([9]; first compound 50 µM): 0.906
- relative viability ([10]; first compound 0.5 µM): 0.917
- relative viability ([10]; first compound 1.581 µM): 0.995
- relative viability ([10]; first compound 5 µM): 1.05
- relative viability ([10]; first compound 15.81 µM): 1.01
- relative viability ([10]; first compound 50 µM): 1.1
- relative viability ([11]; first compound 0.5 µM): 0.59
- relative viability ([11]; first compound 1.581 µM): 0.588
- relative viability ([11]; first compound 5 µM): 0.561
- relative viability ([11]; first compound 15.81 µM): 0.619
- relative viability ([11]; first compound 50 µM): 0.645
- relative viability ([12]; first compound 0.5 µM): 0.774
- relative viability ([12]; first compound 1.581 µM): 0.765
- relative viability ([12]; first compound 5 µM): 0.782
- relative viability ([12]; first compound 15.81 µM): 0.756
- relative viability ([12]; first compound 50 µM): 0.769
- relative viability ([13]; first compound 0.5 µM): 0.338
- relative viability ([13]; first compound 1.581 µM): 0.312
- relative viability ([13]; first compound 5 µM): 0.32
- relative viability ([13]; first compound 15.81 µM): 0.292
- relative viability ([13]; first compound 50 µM): 0.34

Cell Line: NCI-H1623
- relative viability (Hydroxychloroquine; 0.5 µM): 0.88
- relative viability (Hydroxychloroquine; 1.581 µM): 0.959
- relative viability (Hydroxychloroquine; 5 µM): 0.941
- relative viability (Hydroxychloroquine; 15.81 µM): 0.943
- relative viability (Hydroxychloroquine; 50 µM): 0.992
- relative viability ([4]; first compound 0.5 µM): 0.392
- relative viability ([4]; first compound 1.581 µM): 0.405
- relative viability ([4]; first compound 5 µM): 0.406
- relative viability ([4]; first compound 15.81 µM): 0.526
- relative viability ([4]; first compound 50 µM): 0.488
- relative viability ([6]; first compound 0.5 µM): 0.431
- relative viability ([6]; first compound 1.581 µM): 0.409
- relative viability ([6]; first compound 5 µM): 0.496
- relative viability ([6]; first compound 15.81 µM): 0.74
- relative viability ([6]; first compound 50 µM): 0.537
- relative viability ([7]; first compound 0.5 µM): 0.411
- relative viability ([7]; first compound 1.581 µM): 0.406
- relative viability ([7]; first compound 5 µM): 0.449
- relative viability ([7]; first compound 15.81 µM): 0.418
- relative viability ([7]; first compound 50 µM): 0.439
- relative viability ([10]; first compound 0.5 µM): 0.823
- relative viability ([10]; first compound 1.581 µM): 0.842
- relative viability ([10]; first compound 5 µM): 0.88
- relative viability ([10]; first compound 15.81 µM): 0.937
- relative viability ([10]; first compound 50 µM): 0.82
- relative viability ([11]; first compound 0.5 µM): 0.544
- relative viability ([11]; first compound 1.581 µM): 0.565
- relative viability ([11]; first compound 5 µM): 0.578
- relative viability ([11]; first compound 15.81 µM): 0.606
- relative viability ([11]; first compound 50 µM): 0.588
- relative viability ([13]; first compound 0.5 µM): 0.554
- relative viability ([13]; first compound 1.581 µM): 0.485
- relative viability ([13]; first compound 5 µM): 0.51
- relative viability ([13]; first compound 15.81 µM): 0.547
- relative viability ([13]; first compound 50 µM): 0.52
